Data taken from article PMC4838304, “Effective Design of Multifunctional Peptides by Combining Compatible Functions” (PLoS Computational Biology, 2016).
Like-named read-outs stand apart in the source and are kept apart here.

Legend:
[1] = tested on: Escherichia coli strain DH5α; assay: microbe, parasite or virus in culture; format: cell-based
Source text: If CPP, DNA binding and AMP activities are compatible, the designed peptides should inhibit bacterial growth. Here we exposed E. coli DH5α cells to varying low concentrations of the designed peptides as well as several controls (see Fig 4). […] To test whether α-factor was important for AMP activity we also tested pure α-factor, pure NLS, the optimized NLS fitting CPP rules (NLS-CE) and the Iztli-1 peptide, a previously reported peptide with an embedded α-factor specifically designed to have antibacterial activity. […] A linear trend could be observed between concentration and growth inhibition (regression lines with standard deviations shown in Fig 6). […] The minimal inhibitory concentrations for E. coli are reported in Table 2 (growth curves are shown in S4 Fig).
Fig 6 Antibacterial activity. DH5α E. coli cells were treated with varying concentrations of peptides ranging from 0 to 16 μM for the peptides and 0 to 48 μM for Ampicillin. The relative area under the growth curve measured the growth inhibition. Measurements from four repetitions distributed onto two different plates are shown as dots colored by their respective concentrations. Linear regressions are shown as blue lines and their respective standard errors as blue shades. Dashed lines indicate the mean area under the curve for the H2O controls and its 50% value respectively. Minimal inhibitory concentrations to achieve 50% or 100% of cell growth inhibition are reported.
Escherichia coli strain DH5α was grown for 12 hours to mid-log phase and diluted to 8·10^5 cells/ml by using the reference OD obtained by absorption spectroscopy. Each sample 100μL culture was treated with 50μL solution containing the respective peptide in the desired concentration or water in the case of the controls. Growth curves were measured on two 96 well half area plates with two replicates each followed for 24h using a plate reader (Synergy, USA). In order to minimize plate-specific effects due to variations in loading time or initial cell numbers, different plates measurements were normalized by the time-point where the water control samples reached their half-maximal OD before combining. The respective minimum from each growth curve was subtracted from the normalized data from individual or combined plates. Areas under the curves were obtained by applying a linear interpolation to the OD curves, which was then integrated exactly. Growth rates were obtained by log-transforming the growth curves, identifying the exponential phase by the linear parts in that log-transformation (OD600 between 0.05 and 0.5) and performing a linear regression in the exponential phase with the slope denoting the respective growth rate. All mentioned methodology was implemented in R (www.r-project.org) and is available as open source at http://github.com/cdiener/dcf.
Using the slope of the linear regressions determined in these experiments, we estimated the minimal inhibitory concentration (MIC) for E. coli of our 3 CPP designed peptides (α-NLS-C, NLS-α-CE and chimera) and tested it experimentally.

pGREG546 plasmid = assay: Electrophoretic mobility shift assay (EMSA), DNA retention; format: binding; settings: for DNA binding in EMSA, in words: 1μg pGREG546, DNA to peptide charge ratio 1:1 or 1:4, 30 minutes
Source text: To test the ability of the designed peptides to bind nucleic acids, we evaluated by electrophoretic mobility shift assays (EMSAs) the retention of DNA by the designed peptides. Each EMSA was executed with peptide quantities that were multiples of the DNA to peptide charge ratio. A DNA to peptide charge ratio of 1:1 is represented by the number of positive charges of the peptide required to neutralize the negative charges of the DNA backbone. Retention in the gel is an indirect measure of the fraction of positive charges within the peptide participating in binding the DNA molecules. All EMSA assays were performed using the yeast plasmid pGREG546. As negative control, pGREG546 without any peptide was used, and as positive control the known DNA-binding cell penetrating peptide MPG was used. […] However, retention in the gel was observed when NLS was joined to any larger peptide fragment.
Fig 4 DNA binding. (A) Quantification of DNA retention obtained from three independent electrophoretic mobility shift assays. All measurements are shown and horizontal bars denote the sample mean. Representative gels are shown in (B-C).
1μg of pGREG546 plasmid was pre-incubated with the required quantity of each peptide to result in a 1:1 or 1:4 peptide charge to DNA charge ratio. Samples were incubated for 30 minutes and loaded on a 1% Agarose gel in SB buffer. DNA affinity was quantified by measuring the mean pixel intensity of the DNA bands with Fiji (http://fiji.sc) and normalizing to the intensity range between an empty spot on the gel and the intensity of the pGREG546 plasmid without any added peptide. Analysis scripts for the EMSA experiments as well as the raw data can be found with the distributed source code at http://bis.ifc.unam.mx/software/dcf.

[2] = tested on: Escherichia coli strain DH5α; format: cell-based; settings: 12 h
[3] = tested on: pheromone-signaling pathway (Fus1-eGFP) in MATa cells; assay: Pheromone signaling assay, Fus1-GFP expression and shmoo phenotype; format: cell-based, Saccharomyces cerevisiae; settings: BY4741 fus1::eGFP, 60 μM peptide (20 μM for α-factor), 3h
Description: Finally, the activity of the α-factor embedded in the peptides was evaluated by activation of the pheromone-signaling pathway in MATa cells of S. cerevisiae. We monitored the pheromone signaling activity by following the expression of the GFP-labeled Fus1 protein. Fus1 is among the proteins with the highest pheromone-induced expression and is required for cell-cell fusion during mating. […] The observed phenotype was consistent with the activation of signaling showing a mating protrusion, often called “shmoo” as well as the absence of budding due to inhibition of the Cdc28 cyclin [35, 36].
Fig 5 Pheromone activity. The pheromone signaling pathway is confirmed by the expression of Fus1-GFP, characteristic “shmoo” phenotype and the absence of budding observed in differential interference contrast (DIC) bright field. Concentrations were 20 μM for α-factor and 60 μM for all other peptides. The negative control was water without any peptide.
Pheromone signaling induction in Saccharomyces cerevisiae was measured by induction of eGFP fluorescence in a BY4741 strain containing the Fus1-eGFP construct in place of the wild type Fus1 (MATa his3Δ1 leu2Δ0 met15Δ0 ura3Δ0 fus1::eGFP HIS3MX6, obtained from the yeast GFP collection). The BY4741 fus1::eGFP strain was grown overnight in YPD to mid-log phase and diluted to 10^6 cells/mL. Samples were treated with the respective peptide concentrations and incubated for 3h before mixing 1:1 with low-diffusivity agarose suspended on a covered glass slide. Images were taken with an Olympus FV10 confocal microscope using a 60x objective with […]. Images were analyzed using Fiji (www.fiji.sc). The only modifications applied to the images were separation of the bright field and GFP channels, adjustment of brightness and contrast to 50% and addition of scale bars.

[4] = Circular dichroism, secondary structure content (CONTIN/LL); format: physicochemical; settings: for Secondary Structure Random coil / Secondary Structure α-Helix / Secondary Structure β-Sheet: 0.3mg in 1mL, 20°C, far-UV CD, CONTIN/LL
Description: We studied the structural properties of the peptides in vitro, using circular dichroism (see Materials and Methods). The far-UV CD spectra for NLS-CE, NLS-α and NLS-α-CE in water matched the characteristics of a random coil conformation.
Circular dichroism spectra were recorded on a ChirascanTM CD Spectrometer (Applied Photophysics, UK) equipped with a peltier temperature controller. 0.3mg of each peptide was dissolved in 1mL of water or 50% aqueous trifluoroethanol and placed in quartz cuvettes of 0.1cm path length. Far-UV CD spectra were collected from 185 to 250 nm at 20°C. Spectra were averaged over 5 scans and the averaged blank spectra of solvents were subtracted. Ellipticity is reported as mean residue molar ellipticity and recorded in terms of molar elipticity [θ] (deg cm^2 dmol^−1). CONTIN/LL within the CDPro analysis software program was used to estimate the secondary structure content of the peptides.

[5] = E. coli DH5α, peptides 0 to 16 μM

Row | Compound | antibacterial activity against E. coli, in words [1, 5] | DNA binding in EMSA, in words (pGREG546 plasmid) | pheromone signaling activity (Fus1-GFP expression, phenotype) [3] | Secondary Structure Random coil ([4]; 50% TFE) | Secondary Structure α-Helix ([4]; 50% TFE) | Secondary Structure β-Sheet ([4]; 50% TFE) | Secondary Structure Random coil ([4]; water) | Secondary Structure α-Helix ([4]; water) | Secondary Structure β-Sheet ([4]; water) | also measured
1 | WHWLQLKPGQPMY [α-factor, mating pheromone α-factor from S. cerevisiae, purchased from Sigma-Aldrich] | no antibacterial activity | weak ability to bind DNA | – | – | – | – | – | – | – | DNA retention (pGREG546 plasmid; 1:4 DNA to peptide charge ratio, 1μg pGREG546, 30 minutes, 1% agarose gel): around 60%
2 | CC1(C)S[C@@H]2[C@H](NC(=O)[C@H](N)c3ccccc3)C(=O)N2[C@H]1C(=O)O [Ampicillin, reference compound] | – | – | – | – | – | – | – | – | – | MIC ([1]; Escherichia coli, E. coli DH5α, growth curves followed for 24h, relative area under the growth curve, read-out: E. coli MIC for 50% inhibition): > 48 µM; MIC ([1]; Escherichia coli, E. coli DH5α, predicted from linear regression and tested experimentally, read-out: E. coli MIC for 100% inhibition): 100 µM
3 | CSCC[C@H](NC(=O)[C@@H]1CCCN1C(=O)[C@H](CCC(N)=O)NC(=O)CNC(=O)[C@@H]1CCCN1C(=O)[C@H](CCCCN)NC(=O)[C@H](CC(C)C)NC(=O)[C@H](CCC(N)=O)NC(=O)[C@H](CC(C)C)NC(=O)[C@H](Cc1c[nH]c2ccccc12)NC(=O)[C@H](Cc1c[nH]cn1)NC(=O)[C@H](Cc1c[nH]c2ccccc12)NC(=O)[C@H](Cc1ccccc1)NC(=O)[C@H](CCCNC(=N)N)NC(=O)[C@H](CC(N)=O)NC(=O)[C@H](CC(C)C)NC(=O)[C@H](Cc1ccccc1)NC(=O)[C@@H](N)CCCCN)C(=O)N[C@@H](Cc1ccc(O)cc1)C(=O)O [Iztli-1, reference compound] | very similar E. coli growth inhibition as NLS-α | increased its affinity for DNA | same phenotype | – | – | – | – | – | – | MIC ([1]; DH5α, 24 h, read-out: E. coli MIC for 50% inhibition): 8 µM; E. coli MIC for 100% inhibition [2]: 20 µM
4 | WRFVWMNPKKKRKV [NLS-CE, optimized NLS fitting CPP rules] | partial growth inhibition | effective DNA-binding activity | – | 61% | 5% | 34% | 64% | 6% | 31% | –
5 | QPKKKRKV [NLS, reference compound] | no antibacterial activity | not capable of binding DNA in low concentrations | – | – | – | – | – | – | – | –
6 | PKKKRKVWHWLQLKPGQPMY [NLS-α] | – | – | significant induction of expression of Fus1-GFP | 59% | 6% | 35% | 67% | 5% | 28% | concentration showing partial growth inhibition [1, 5]: 4 µM; aggregation suggested by decrease in negative ellipticity ([4]; 50% TFE, CD spectra): TFE promoted aggregation of the peptides
